Strand notation (5' to 3'): a small letter for the sugar, then the base; units joined by * are phosphorothioate-linked, units joined directly phosphodiester-linked; [ ] holds rarer units or linkages, { } end groups; capitals alone tell only the bases. e = 2'-O-(2-methoxyethyl) (MOE); [5mC] = 5-methylcytosine; d = 2'-deoxy (DNA)
Legend:
[1] = Triglyceride, cholesterol and glucose levels, pre-bleed and post-bleed, GCGR study (Table 34); format: in vivo, mouse; set-up: Triglyceride (TRIG) Pre-Bleed / Triglyceride (TRIG) Post-Bleed / Cholesterol (CHOL) Pre-Bleed / Cholesterol (CHOL) Post-Bleed / Glucose Pre-Bleed / Glucose Post-Bleed: unit not given here
Procedure: (§1) Eight-week old male C57/BL6 mice (Jackson Laboratory, Bar Harbor, Me.) were administered a single dose of GCGR oligonucleotide by intraperitoneal injection at a concentration of […]. Each dose group consisted of four animals. Shown in Table 31 are the sequences, motifs and conjugates of the GCGR antisense compounds used in this study. Bolded residues indicate 2′-O-methoxyethyl (2′-MOE) moieties. All compounds comprise phosphorothioate internucleoside linkages throughout and each cytosine is replaced with 5-methylcytosine. ISIS 386626, ISIS 386627 and ISIS 386628 further comprise a C16 conjugate group attached to the 2′-O position of the sugar via a diamide linkage (2′-OCH2C(═O)N(H)(CH2)4N(H)C(═O)—(CH2)15CH3). GCGR antisense compounds target published GCGR sequences, including Genbank® Accession No. BC031885.1 (SEQ ID NO: 7).
(§2) Mice were sacrificed 48 hours following injection to determine serum transaminase levels (Table 32); liver, white adipose tissue (WAT), spleen and kidney weight (Table 33); cholesterol, triglyceride and glucose levels (Table 34); GCGR mRNA levels (Tables 35-41); and full-length and total oligonucleotide concentration in liver and kidney (Table 42). Endpoints were assessed using methods described herein and well known to those of ordinary skill in the art. Data is included from a pre-treatment bleed (Pre-Bleed) and post-treatment bleed (Post-Bleed).

[2] = ALT & AST levels and toxic effects, GCGR study (Table 32); format: in vivo, mouse; details: C57/BL6 mice, pre-treatment bleed
Procedure: as §1, §2

[3] = Organ weights: liver, WAT, spleen, kidney, GCGR study (Table 33); format: in vivo, mouse; details: 48 h
Procedure: as §1, §2

[4] = system: GCGR mRNA; assay: GCGR mRNA levels in liver, C57/BL6 mice, single i.p. dose (Tables 35-41); format: in vivo, mouse
Procedure: Prior to quantitative PCR analysis, primer-probe sets specific to the target gene being measured were evaluated for their ability to be “multiplexed” with a GAPDH amplification reaction. After isolation the RNA is subjected to sequential reverse transcriptase (RT) reaction and real-time PCR, both of which are performed in the same well. RT and PCR reagents were obtained from Invitrogen Life Technologies (Carlsbad, Calif.). […] The RT reaction was carried out by incubation for 30 minutes at 48° C. Following a 10 minute incubation at 95° C. to activate the PLATIN 9M® Taq, 40 cycles of a two-step PCR protocol were carried out: 95° C. for 15 seconds (denaturation) followed by 60° C. for 1.5 minutes (annealing/extension).
170 μL of RiboGreen® working reagent (RiboGreen® reagent diluted 1:350 in 10 mM Tris-HCl, 1 mM EDTA, pH 7.5) was pipetted into a 96-well plate containing 30 μL purified cellular RNA. The plate was read in a CytoFluor® 4000 (PE Applied Biosystems) with excitation at 485 nm and emission at 530 nm.
as §1, §2
To determine whether the phenotypic changes shown above correlated with a decrease in GCGR mRNA, treated animals were evaluated for levels of target mRNA in liver by real time PCR according to methods described herein. Tables 35 to 41 show results from direct comparisons of the antisense compounds targeting GCGR nucleic acid for their effect on target expression. Results are expressed as percent of saline control.

[5] = system: mouse SGLT2 mRNA; assay: Mouse SGLT2 mRNA in kidney, additional 1-10-1 and 2-8-2 MOE gapmers (Table 68); format: in vivo; details: Balb/c mouse kidney
Procedure: 1-10-1 and 2-8-2 MOE gapmer short antisense compounds were designed to target different regions of the mouse SGLT2 RNA but have complementarity across species. […] All cytidine residues are 5-methylcytidines.
The short antisense compounds were analyzed for their effect on mouse SGLT2 mRNA levels in vivo. Data was taken from three experiments in which male 6-week old Balb/c mice were dosed twice per week for three weeks with 0.5, 0.1, or 0.02 umol/kg of either a 1-10-1 or 2-8-2 MOE gapmer given by intraperitoneal injection. Mice were sacrificed 48 hours following last administration and evaluated for SGLT2 levels in kidney. Target levels were determined by RT, real-time PCR as described by other examples herein. PCR results were normalized to an internal ISIS control.

[6] = 6.25 mg/kg group, pre-treatment bleed
[7] = 6.25 mg/kg single i.p., post-treatment bleed
[8] = 12.5 mg/kg group, pre-treatment bleed
[9] = 12.5 mg/kg single i.p., post-treatment bleed
[10] = 25 mg/kg group, pre-treatment bleed
[11] = 25 mg/kg single i.p., post-treatment bleed
[12] = 50 mg/kg group, pre-treatment bleed
[13] = 50 mg/kg single i.p., post-treatment bleed

386626 (antisense GCTTCTCCATCATA; chemistry not fully specified) [compound 386626]
Cholesterol (CHOL) Pre-Bleed [1, 6]: 85
Triglyceride (TRIG) Pre-Bleed [1, 6]: 86
Cholesterol (CHOL) Post-Bleed [1, 7]: 90
Triglyceride (TRIG) Post-Bleed [1, 7]: 162
Cholesterol (CHOL) Pre-Bleed [1, 8]: 82
Triglyceride (TRIG) Pre-Bleed [1, 8]: 100
Cholesterol (CHOL) Post-Bleed [1, 9]: 76
Triglyceride (TRIG) Post-Bleed [1, 9]: 148
Cholesterol (CHOL) Pre-Bleed [1, 10]: 87
Triglyceride (TRIG) Pre-Bleed [1, 10]: 100
Cholesterol (CHOL) Post-Bleed [1, 11]: 72
Triglyceride (TRIG) Post-Bleed [1, 11]: 187
Cholesterol (CHOL) Pre-Bleed [1, 12]: 79
Triglyceride (TRIG) Pre-Bleed [1, 12]: 87
Cholesterol (CHOL) Post-Bleed [1, 13]: 57
Triglyceride (TRIG) Post-Bleed [1, 13]: 163
ALT Pre-Bleed ([2]; dose group 6.25 mg/kg): 26 IU/L
AST Pre-Bleed ([2]; dose group 6.25 mg/kg): 46 IU/L
ALT Pre-Bleed ([2]; dose group 12.5 mg/kg): 28 IU/L
AST Pre-Bleed ([2]; dose group 12.5 mg/kg): 44 IU/L
ALT Pre-Bleed ([2]; dose group 25 mg/kg): 30 IU/L
AST Pre-Bleed ([2]; dose group 25 mg/kg): 44 IU/L
ALT Pre-Bleed ([2]; dose group 50 mg/kg): 28 IU/L
AST Pre-Bleed ([2]; dose group 50 mg/kg): 48 IU/L
Organ Weights: Kidney ([3]; 6.25 mg/kg single i.p.): 100 % saline control
Organ Weights: Liver ([3]; 6.25 mg/kg single i.p.): 100 % saline control
Organ Weights: Spleen ([3]; 6.25 mg/kg single i.p.): 95 % saline control
Organ Weights: WAT ([3]; 6.25 mg/kg single i.p.): 90 % saline control
Organ Weights: Kidney ([3]; 12.5 mg/kg single i.p.): 97 % saline control
Organ Weights: Liver ([3]; 12.5 mg/kg single i.p.): 96 % saline control
Organ Weights: Spleen ([3]; 12.5 mg/kg single i.p.): 114 % saline control
Organ Weights: WAT ([3]; 12.5 mg/kg single i.p.): 73 % saline control
Organ Weights: Kidney ([3]; 25 mg/kg single i.p.): 103 % saline control
Organ Weights: Liver ([3]; 25 mg/kg single i.p.): 109 % saline control
Organ Weights: Spleen ([3]; 25 mg/kg single i.p.): 120 % saline control
Organ Weights: WAT ([3]; 25 mg/kg single i.p.): 97 % saline control
Organ Weights: Kidney ([3]; 50 mg/kg single i.p.): 104 % saline control
Organ Weights: Liver ([3]; 50 mg/kg single i.p.): 112 % saline control
Organ Weights: Spleen ([3]; 50 mg/kg single i.p.): 130 % saline control
Organ Weights: WAT ([3]; 50 mg/kg single i.p.): 77 % saline control
GCGR mRNA levels ([4]; 6.25 mg/kg, Table 35 comparison ISIS 148364 & ISIS 386626): 7% of saline control
GCGR mRNA levels ([4]; 12.5 mg/kg, Table 35 comparison ISIS 148364 & ISIS 386626): 3% of saline control
GCGR mRNA levels ([4]; 25 mg/kg, Table 35 comparison ISIS 148364 & ISIS 386626): 8% of saline control
GCGR mRNA levels ([4]; 50 mg/kg, Table 35 comparison ISIS 148364 & ISIS 386626): 0% of saline control

386628 (antisense TGTCTTGCTGCTTT; chemistry not fully specified) [compound 386628]
Cholesterol (CHOL) Pre-Bleed [1, 6]: 83
Triglyceride (TRIG) Pre-Bleed [1, 6]: 117
Cholesterol (CHOL) Post-Bleed [1, 7]: 85
Triglyceride (TRIG) Post-Bleed [1, 7]: 121
Cholesterol (CHOL) Pre-Bleed [1, 8]: 90
Triglyceride (TRIG) Pre-Bleed [1, 8]: 90
Cholesterol (CHOL) Post-Bleed [1, 9]: 94
Glucose Post-Bleed [1, 9]: 240
Triglyceride (TRIG) Post-Bleed [1, 9]: 123
Cholesterol (CHOL) Pre-Bleed [1, 10]: 84
Glucose Pre-Bleed [1, 10]: 210
Triglyceride (TRIG) Pre-Bleed [1, 10]: 102
Cholesterol (CHOL) Post-Bleed [1, 11]: 85
Triglyceride (TRIG) Post-Bleed [1, 11]: 129
Cholesterol (CHOL) Pre-Bleed [1, 12]: 88
Triglyceride (TRIG) Pre-Bleed [1, 12]: 102
Cholesterol (CHOL) Post-Bleed [1, 13]: 95
Triglyceride (TRIG) Post-Bleed [1, 13]: 98
ALT Pre-Bleed ([2]; dose group 6.25 mg/kg): 22 IU/L
AST Pre-Bleed ([2]; dose group 6.25 mg/kg): 40 IU/L
ALT Pre-Bleed ([2]; dose group 12.5 mg/kg): 28 IU/L
AST Pre-Bleed ([2]; dose group 12.5 mg/kg): 42 IU/L
ALT Pre-Bleed ([2]; dose group 25 mg/kg): 24 IU/L
AST Pre-Bleed ([2]; dose group 25 mg/kg): 40 IU/L
ALT Pre-Bleed ([2]; dose group 50 mg/kg): 28 IU/L
AST Pre-Bleed ([2]; dose group 50 mg/kg): 44 IU/L
Organ Weights: Kidney ([3]; 6.25 mg/kg single i.p.): 102 % saline control
Organ Weights: Liver ([3]; 6.25 mg/kg single i.p.): 98 % saline control
Organ Weights: Spleen ([3]; 6.25 mg/kg single i.p.): 151 % saline control
Organ Weights: WAT ([3]; 6.25 mg/kg single i.p.): 106 % saline control
Organ Weights: Kidney ([3]; 12.5 mg/kg single i.p.): 99 % saline control
Organ Weights: Liver ([3]; 12.5 mg/kg single i.p.): 101 % saline control
Organ Weights: Spleen ([3]; 12.5 mg/kg single i.p.): 114 % saline control
Organ Weights: WAT ([3]; 12.5 mg/kg single i.p.): 111 % saline control
Organ Weights: Kidney ([3]; 25 mg/kg single i.p.): 109 % saline control
Organ Weights: Liver ([3]; 25 mg/kg single i.p.): 102 % saline control
Organ Weights: Spleen ([3]; 25 mg/kg single i.p.): 113 % saline control
Organ Weights: WAT ([3]; 25 mg/kg single i.p.): 97 % saline control
Organ Weights: Kidney ([3]; 50 mg/kg single i.p.): 99 % saline control
Organ Weights: Liver ([3]; 50 mg/kg single i.p.): 104 % saline control
Organ Weights: Spleen ([3]; 50 mg/kg single i.p.): 126 % saline control
Organ Weights: WAT ([3]; 50 mg/kg single i.p.): 100 % saline control
GCGR mRNA levels ([4]; 6.25 mg/kg, Table 38 comparison ISIS 148364 & ISIS 386628): 77% of saline control
GCGR mRNA levels ([4]; 6.25 mg/kg, Table 41 comparison ISIS 386628 & ISIS 386594): 97% of saline control
GCGR mRNA levels ([4]; 12.5 mg/kg, Table 38 comparison ISIS 148364 & ISIS 386628): 53% of saline control
GCGR mRNA levels ([4]; 12.5 mg/kg, Table 41 comparison ISIS 386628 & ISIS 386594): 38% of saline control
GCGR mRNA levels ([4]; 25 mg/kg, Table 38 comparison ISIS 148364 & ISIS 386628): 18% of saline control
GCGR mRNA levels ([4]; 25 mg/kg, Table 41 comparison ISIS 386628 & ISIS 386594): 13% of saline control
GCGR mRNA levels ([4]; 50 mg/kg, Table 38 comparison ISIS 148364 & ISIS 386628): 2% of saline control
GCGR mRNA levels ([4]; 50 mg/kg, Table 41 comparison ISIS 386628 & ISIS 386594): 4% of saline control

ISIS 388627 (eG*e[5mC]*dA*d[5mC]*dA*d[5mC]*dA*dG*d[5mC]*dT*eG*e[5mC])
% change in SGLT2 expression relative to saline ([5]; 0.02 umol/kg i.p. twice per week for three weeks): −38%
% change in SGLT2 expression relative to saline ([5]; 0.1 umol/kg i.p. twice per week for three weeks): −50%
% change in SGLT2 expression relative to saline ([5]; 0.5 umol/kg i.p. twice per week for three weeks): −65%
